Consider 1 compound from US20170007644A1, “A METHOD OF TREATING NEOPLASIA” (FUWAN PTY LTD, priority 2013, published 2017).

The test system of this assay is A549-GFP cells (A549/lung cancer cells). Briefly: Proliferation assay (fluorescence intensity) of A549-GFP cells treated with MLPC and/or doxorubicin. The following applies: doxorubicin alone 0.8 μM or 4 μM, 72 hours, FIG. 7. The class given is cell-based, human. The procedure:
Single cell suspensions of A549-GFP, A549-LG, and SKOV3-LG were obtained after trypsinization of the monolayer cultures and counted by trypan blue exclusion. In brief, the cells were seeded at various densities of 1000, 2000, 4000, 5000, 6000, and 10.000 cells into black microliter plates (Nunc) and incubated in 200 microliter culture medium for 3 days. Then the supernatant of cell culture were replaced by 100 microliter Dulbecco's Phosphate buffered saline (DPBS). The fluorescence intensity was determined by excitation and emission on fluorescent microplate reader (BMG).
Single cell suspensions of A549-GFP and SKOV3-LG were obtained by trypsinization of the monolayer cultures and counted by trypan blue exclusion. The proliferation of cancer cells, in particular the downregulation of proliferation, was evaluated by individual, simultaneous, two-stage models. MLPC and a chemotherapeutic drug were added simultaneously to A549-GFP and SKOV3-LG cells for 3 days. In a two-stage experiment, in the first stage MLPC were added to A549-GFP and SKOV3-LG cells for 3 days. In the second stage, supernatants of cells were removed and a chemotherapeutic drug was added for 3 days. […] Fluorescence intensities were determined to evaluate the effect on cancer cell proliferation of the various treatments and control.

On to `COc1cccc2c1C(=O)c1c(O)c3c(c(O)c1C2=O)C[C@@](O)(C(=O)CO)C[C@@H]3O[C@H]1C[C@H](N)[C@H](O)[C@H](C)O1` [doxorubicin], for which the “cancer cell proliferation (relative fluorescence intensity)” value is listed as “significantly reduced cancer cell proliferation”.
